# Measured values as given in PubChem BioAssay AID179 (DTP/NCI, 2004).
# Calls of active or inactive are those of the source.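 The calls were made as follows: active = compounds giving half or more protection of infected cells from virus-caused growth loss, again on retest; inactive = the rest.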
# Tested on: CEM cells HIV-1 protection, formazan growth assay
# Assay: NCI AIDS Antiviral Assay
# Conditions: for IC50: measured here: growth of uninfected CEM cells
# Outline: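 Five concentrations of each compound were applied to infected and uninfected human CEM cells. Protection from HIV-1 was judged from growth measured with a soluble formazan assay.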
Structure (SMILES),EC50 [µM],IC50 [µM],outcome
CSc1c(C(=O)Nc2ccc(Cl)cc2)c(N)n(N)c(=O)c1C#N,> 200,40.7,
Cc1ccc(S(=O)(=O)N2/C(=C/c3ccccc3)C(=O)c3ccccc3-c3ccccc32)cc1,> 11.5,> 11.5,
Cc1ccccc1CN1CC=c2ccccc2=N1,51.3,129,
CNCS(=O)(=O)O,> 200,97.7,
C=CCCCC(C)(C(=O)OC(C)(C)C)C1=NOC(C)(C)C1 (stereo unspecified),> 200,> 200,
COc1ccc(N=Nc2c(C)c(C#N)c(=S)n(C3OC(COC(C)=O)C(OC(C)=O)C(OC(C)=O)C3OC(C)=O)c2C)cc1 (stereo unspecified),> 200,> 200,
Cc1cc(S(=O)(=O)/N=C(/NN)NNc2cccc(C(F)(F)F)n2)c(S)cc1Cl,> 200,42.7,
CC(=C(c1ccccc1)c1ccccc1)N1C(=O)CC(=O)N1C,> 200,120,
CCC1CN2CCC3(C(=O)Nc4ccccc43)C2CC1/C(=C/OC)C(=O)OC (stereo unspecified),,,inactive
CC(C)C(OC(=O)c1ccc(NCc2cc(O)ccc2O)cc1)C(C)C,> 200,1.41,
Cc1cc2c(c(=O)[nH]1)C(=O)OC2,> 1100,> 1100,
O=c1cc(Nc2cccc(O)c2)[nH]c(=O)[nH]1,,,inactive
COc1ccc(C[C@@H]2Cc3cc(OC)c(OC)cc3CN2C)cc1,> 692,45.7,
CC(=O)C1N=Nc2nc3c(=O)n(C)c(=O)n(C)c3n2C1=O (stereo unspecified),> 200,> 200,
COc1cccc(-c2c(C#N)c(N)nc3c2CCS(=O)(=O)c2ccc(C)cc2-3)c1,> 200,> 200,
O=C1CCC2(c3ccccc3)Nc3ccc(Cl)cc3N12 (stereo unspecified),,,inactive
CC12OC(=O)[C@@]3(O)CCC4C(C[C@H]5O[C@]56CC=CC(=O)[C@]46C)C45OC[C@H]6C(=O)O[C@@H]1C[C@@]6(C)[C@H](C4=O)C23O5 (stereo partly specified),> 200,0.398,
S=C1NCCN1C(=S)Nc1ccccc1,> 141,> 141,
CCCN(CCCCC(NC(C)=O)C(=O)NCc1ccccc1)C(=O)N(C)N=O (stereo unspecified),> 89.1,> 89.1,
COC(=O)[C@@H]1CN(C(=O)c2ccccc2)C(=O)N1,> 200,> 200,
CCOc1ncn(-c2ccc(NC(=S)NC34CC5CC(CC(C5)C3)C4)cc2)n1,12,67.6,
CN(C)CCn1c2c3ccccc3ccc2c2oc(=O)c3ccccc3c21,> 18.2,8.51,
O=C(Nc1ccc(Cl)cc1Cl)/C(Cl)=C1/Sc2ccccc2NC1=O,> 6.76,> 6.76,

Structure (SMILES),EC50 [µM],IC50 [µM],outcome
COc1ccc(N2C(=O)C3c4[nH]c5ccc(OC)cc5c4C4CCC(C(C)(C)C)CC4C3C2=O)cc1 (stereo unspecified),> 14.8,> 14.8,
Cc1ccc(NP(=O)(Oc2ccccc2)N(CCCl)CCCl)cc1 (stereo unspecified),> 35.5,15.8,
Nc1nc(N)c(-c2ccccc2)c(C(=O)Nc2ccc(Cl)c(Cl)c2)n1,> 479,,
COC(=O)Cc1nn2c(nc1=O)sc1ccc3ccccc3c12,> 69.2,> 69.2,
NC(CSSCC(NC(=O)c1ccccc1)C(=O)O)C(=O)O (stereo unspecified),> 200,> 200,
N#Cc1c(NC(=S)NC(=O)c2ccccc2)nc2c(c1-c1ccccc1)CCC2,> 100,93.3,
CCn1c2c(c3ccccc31)[C@@H](c1ccc(Cl)cc1)CC1C(=O)N(c3ccccc3)C(=O)C21 (stereo partly specified),> 11.5,> 11.5,
CC1C=CN(N(C)C)C2=C1C(=O)c1cnccc1C2=O (stereo unspecified),> 20,1.23,
O=C1NC(=O)[C@@]2(CC[C@@H](O)C2)c2ccncc21,> 562,447,
Cc1cc2nnn(C3CCCO3)c2cc1C (stereo unspecified),> 200,> 200,
C1=C(C2CCCC3[C@@H]4C[C@@H](CN23)C2CCCCN2C4)CCC2[C@H]3C[C@H](CN12)C1CCCCN1C3 (stereo partly specified),> 21.4,> 21.4,
C/C(=N\N)C(CN(C)C)C(c1ccccc1)c1c(O)c2ccccc2oc1=O (stereo unspecified),> 87.1,> 87.1,
CC(NC(=O)C(Cc1ccc(OC(=O)c2ccccc2)cc1)NC(=O)OC(C)(C)C)C(=O)NCC(=O)NC(Cc1ccccc1)C(=O)NN (stereo unspecified),> 200,11.7,
COc1ccc(/C=C2\N=C(SC)NC2=O)cc1,> 200,107,
CCSCCCCCCCCCCC(=O)OCC1OC(n2cc(C)c(=O)[nH]c2=O)CC1N=[N+]=[N-] (stereo unspecified),0.0479,49,
CC(=O)Nc1ccccc1Sc1ccccc1,> 245,69.2,
CCC(c1ccc(Cl)cc1)N1CCC2(CC1)C(=O)NCN2c1ccccc1 (stereo unspecified),> 200,> 200,
CC(=O)Oc1ccc2cc(Oc3ccc(Cl)cc3)c(=O)oc2c1,> 200,83.2,
Nc1ccn(C2CC3OCC3O2)c(=O)n1 (stereo unspecified),> 200,> 200,
O=[N+]([O-])c1ccc(-n2nnc(C3=NCCN3)c2-c2ccccc2)cc1,> 30.2,> 30.2,
Cc1ccc(S(=O)(=O)OC2CCN(C)CC2)cc1,> 200,> 200,
O=C(c1ccccc1)N1CCN(C(=S)NC2CCCCC2)C1=S,> 200,12,
O=c1[nH]nc(-c2cccc(Br)c2)[nH]1,> 200,> 200,

Structure (SMILES),EC50 [µM],IC50 [µM],outcome
O=C(O)CCC(NC(=O)/C(=C/c1ccccc1)NC(=O)c1ccccc1)C(=O)O (stereo unspecified),> 200,> 200,
O=C(CC(=O)N1CCN(c2ccccn2)CC1)N1CCN(c2ccccn2)CC1,> 97.7,> 97.7,
CCOC(=O)CCC(NC(=O)c1ccc(N2CCN(c3c(C)nc(N)nc3N)CC2)cc1)C(=O)OCC (stereo unspecified),> 0.2,0.0427,
C=C(CN(C)C)C1(c2ccccc2)CC2(CCCC2)C(=O)O1 (stereo unspecified),> 200,38,
COc1cc(C(C#N)S(=O)(=O)O)ccc1O (stereo unspecified),> 200,> 200,
CCOC(=O)c1cnc2c(cnn2CC)c1NN=C(C)C,> 200,117,
Cc1cc(C)c(-c2noc(-c3ccc(Cl)cc3)c2C2=NCCN2)c(C)c1,,,inactive
Cc1nc2cc(C)[nH]c(=O)n2n1,> 1510,> 1510,
CC1(C)C2C=CC1C(=O)CC2 (stereo unspecified),> 389,> 389,
C[C@@H](c1ccccc1)N(CC#N)[C@H]1CCC[C@]1(O)/C=C/c1ccc2c(c1)OCO2,> 50.1,> 50.1,
C/C(=N/OC(=O)N(C)C)c1ccc(Cl)cc1Cl,> 200,105,
CCCCCCCCCCCC(=O)OCC(O)CO (stereo unspecified),> 100,51.3,
COC1=CC(=O)[C@]2(C)[C@H](C1=O)C(C)[C@H]2c1ccc(OC)cc1 (stereo partly specified),> 87.1,> 87.1,
O=c1c2ccccc2nc2n1-c1ccccc1SC2,> 97.7,> 97.7,
CC1(C)C=Cc2c(ccc3c(=O)c(-c4ccccc4)coc23)O1,> 100,> 100,
O=C(O)CC(NC(=O)OCc1ccccc1)C(=O)O (stereo unspecified),> 200,> 200,
COc1ccc2c(c1)CC1c3c(cc4c(c3-2)OCO4)CCN1C (stereo unspecified),> 589,3.31,
CC1CCCc2c1c1ccc3c(O)cccc3c1oc2=O (stereo unspecified),> 7.08,> 7.08,
C[n+]1c2ccccc2c(CNC(CCC(N)=O)C(=O)O)c2ccccc21 (stereo unspecified),,,inactive
C#CC1NC(=O)C1N(CC)CC (stereo unspecified),,,inactive
CC1=CC=CC(C)(C)CC1(O[Si](C)(C)C)C(F)(F)F (stereo unspecified),> 200,148,
O=C(/C=C/c1ccc(O)c([N+](=O)[O-])c1)CC(=O)/C=C/c1ccc(O)c([N+](=O)[O-])c1,> 200,25.7,
O=C1C(c2c[nH]c3ccccc23)=Nc2ccc(Br)cc21,> 20,5.89,

Structure (SMILES),EC50 [µM],IC50 [µM],outcome
O=[N+]([O-])c1cccnc1S(=O)(=O)c1ccccc1,> 490,1.1,
c1ccc2c3c(ccc2c1)CSCc1ccc2ccccc2c1-3,> 200,,
COC(=O)[C@@H](N1C(=O)c2ccccc2C1=O)C1(C)CC(Cl)=NO1 (stereo partly specified),> 200,> 200,
CC(=O)Nc1ccc(NCC(=O)Nn2cnc3ccc(S(=O)(=O)Nc4ccc(NC(C)=O)cc4)cc3c2=O)cc1,> 200,191,
C=CC1OC(CCCOC(=O)C(C)(C)C)O[C@@H]1CC (stereo partly specified),> 200,> 200,
COCCOCOC(C)(C)[C@H](CCOC(C)=O)O[Si](c1ccccc1)(c1ccccc1)C(C)(C)C,,,inactive
COC1C2c3cc4c(cc3CC(C#N)(c3ccccc32)N1C(=O)c1ccccc1)OCO4 (stereo unspecified),,,inactive
CC(O)(c1ccc(OCCC[N+](C)(C)C)cc1)C(C)(O)c1ccc(OCCC[N+](C)(C)C)cc1 (stereo unspecified),> 1820,794,
O=C(/C=C/c1ccccc1)Nc1ccccc1SCCCCl,> 200,9.55,
O=C1NC(=O)c2ncccc21,> 200,> 200,
CC(C)CN(CC(C)C)C(=O)C(Br)C(Br)C(=O)O (stereo unspecified),> 200,91.2,
COc1ccc2c(c1)CCCN2S(=O)(=O)c1ccccc1[N+](=O)[O-],> 200,21.4,
CC1(C)c2ccccc2C(=O)C1(Br)Cc1ccccc1 (stereo unspecified),> 200,9.55,
C/C(=N/NC(=S)N(C)C)c1ccccc1O,> 200,11.7,
C#CCOC(=O)c1ccc(OC(C)=O)cc1,> 200,191,
C=CCN(CC=C)CC(C(C)=O)C(c1ccccc1)c1c(O)c2ccccc2oc1=O (stereo unspecified),> 1.15,> 1.15,
CC(=O)N1C(=N)SCC1C(N)=O (stereo unspecified),427,479,
Cc1cc2[nH]c3[nH]c(=O)[nH]c(=O)c3c2cc1C,> 200,170,
Fc1ccc(-c2sc(-c3cccs3)cc2Cc2cccs2)cc1,,,inactive
CCCC[C@H]1C(=O)O[C@H](C)[C@H](NC(=O)c2cccc(NC=O)c2O)C(=O)O[C@@H](C)[C@@H]1OC(=O)CC(C)C,> 1,0.0389,
C[n+]1ccccc1-c1nc(-c2cccc[n+]2C)nc(-c2cccc[n+]2C)n1,> 200,> 200,
O=C(/C=C/c1ccccc1)c1cccs1,> 200,3.72,
